Source: US7803801B2, “Aminopyridine compounds having Syk inhibitory activity” (Japan Tobacco, Inc., priority 2005, dated 2010)
Counter-ions that a name gives are not always drawn. Like-named read-outs stand apart in the source and are kept apart here.

Assays:
[1] = target: GST-Syk Full Protein (human) (Homo sapiens, UniProt P43405); test: Syk kinase inhibition test (HTRF method); type: biochemical
Outline: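 HTRF read-out: after EDTA termination and 1 h with XL665-streptavidin and Eu-anti-phosphotyrosine, the 665/620 nm ratio was measured. The reaction ran 30 min at 20–25 °C with final 6.4 nM human GST-Syk, 250 nM biotinylated peptide, 100 μM ATP, pH 7.0 HEPES buffer, 2% DMSO.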

[2] = test system: cultured human mast cells; test: Degranulation inhibition test using cultured human mast cells (IgE cross-linking, β-Hexosaminidase release); type: cell-based; conditions: Mast cell, cultured human mast cells, read-out: human degranulation ave. IC50
Outline: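 Degranulation was triggered by anti-hIgE (10 μg/mL final, 30 min, 37 °C) after a 10-min compound pretreatment (DMSO 0.1%) of cord-blood CD34+-derived mast cells primed 5 days with IL-4 and IgE. β-Hexosaminidase in supernatant was measured with p-nitrophenyl-GlcNAc substrate (A405), expressed against water-lysed total; IC50 (M).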

[3] = Tables 1-x, compounds A, read-out: sykHTRF ave IC50
[4] = HTRF, 100 μM ATP, 30 min room temperature, average, read-out: sykHTRF ave IC50
[5] = anti-hIgE stimulation, β-Hexosaminidase index, average
[6] = Tables 2-x, thiophene compounds B, read-out: sykHTRK ave IC50
[7] = Tables 2-x, thiophene compounds B

Row | Structure (SMILES) | IC50 [1, 3] | IC50 ([2]; Tables 1-x, compounds A) | IC50 [1, 4] | IC50 [2, 5] | IC50 [1, 6] | IC50 [2, 7]
1 | Cc1ccnc(Nc2cccc(-c3cnc(N(C)[C@H]4CN[C@H](C(=O)O)C4)s3)n2)c1 [Compound A-579, (2S,4R)-4-(N-methyl-N-{5-[6-(4-methylpyridin-2-ylamino)pyridin-2-yl]thiazol-2-yl}amino)pyrrolidine-2-carboxylic acid] | < 100 nM | > 1000 nM | – | – | – | –
2 | Cc1ccnc(Nc2cccc(-c3cnc([C@@H]4COC(=O)N4C)s3)n2)c1 [Compound A-11] | – | – | 100 to 1000 nM | 100 to 1000 nM | – | –
3 | Cc1ccnc(Nc2cccc(-c3cnc(N(C)Cc4cccc(C(=O)O)c4)s3)n2)c1 [Compound A-586, 3-[(N-methyl-N-{5-[6-(4-methylpyridin-2-ylamino)pyridin-2-yl]thiazol-2-yl}amino)methyl]benzoic acid dihydrochloride] | < 100 nM | > 1000 nM | – | – | – | –
4 | Cc1ccnc(Nc2cccc(-c3cnc([C@H](C)NC(=O)CO)s3)n2)c1 [Compound A-147, 2-hydroxy-N—((S)-1-{5-[6-(4-methylpyridin-2-ylamino)pyridin-2-yl]thiazol-2-yl}ethyl)acetamide] | – | – | < 100 nM | 100 to 1000 nM | – | –
5 | CCc1ccc(-c2cccc(Nc3cc(C)ccn3)n2)s1 [Compound B-91] | – | – | – | – | 100 to 1000 nM | > 1000 nM
6 | Cc1ccnc(Nc2cccc(-c3ccc(-c4noc(=O)[nH]4)s3)n2)c1 [Compound B-61] | – | – | – | – | 100 to 1000 nM | > 1000 nM
7 | CC(=NO)c1sc(-c2cccc(Nc3cc(C)ccn3)n2)cc1C [Compound B-42] | – | – | – | – | 100 to 1000 nM | > 1000 nM
8 | Cc1ccnc(Nc2cccc(-c3ccc(C(=O)NCC(C)O)s3)n2)c1 (stereo not drawn) [Compound B-41] | – | – | – | – | 100 to 1000 nM | 100 to 1000 nM
9 | Cc1ccnc(Nc2cccc(-c3ccc(C(N)=O)s3)n2)c1 [Compound B-23, 5-[6-(4-methylpyridin-2-ylamino)pyridin-2-yl]thiophene-2-carboxamide] | – | – | – | – | < 100 nM | > 1000 nM
10 | Cc1ccnc(Nc2cccc(-c3cnc(CNC[C@H]4CC[C@H](C(=O)O)CC4)s3)n2)c1 [Compound A-207] | – | – | 100 to 1000 nM | > 1000 nM | – | –
11 | Cc1ccnc(Nc2cccc(-c3cnc(CN4C(=O)CN(Cc5ccccc5)CC4=O)s3)n2)c1 [Compound A-391] | > 1000 nM | > 1000 nM | – | – | – | –
12 | CON=C(C)c1ccc(-c2cccc(Nc3cc(C)ccn3)n2)s1 [Compound B-18] | – | – | – | – | 100 to 1000 nM | > 1000 nM
13 | COc1ccnc(Nc2cccc(-c3cnc(N4CCC[C@H]4C(N)=O)s3)n2)c1 [Compound A-541, (S)-1-{5-[6-(4-methoxypyridin-2-ylamino)pyridin-2-yl]thiazol-2-yl}pyrrolidine-2-carboxamide] | < 100 nM | 100 to 1000 nM | – | – | – | –
14 | CC(=O)N1C[C@H](O)C[C@H]1c1ncc(-c2cccc(Nc3cc(C)ccn3)n2)s1 [Compound A-95] | – | – | 100 to 1000 nM | > 1000 nM | – | –
15 | CC(=O)c1ccc(-c2cccc(Nc3cc(C4(C)OCCO4)ccn3)n2)s1 [Compound B-78] | – | – | – | – | 100 to 1000 nM | 100 to 1000 nM
16 | Cc1ccnc(Nc2cccc(-c3cncs3)n2)c1 [Compound A-24] | – | – | 100 to 1000 nM | > 1000 nM | – | –
17 | Cc1ccnc(Nc2cccc(-c3cnc(N4CCC(CC(=O)O)C4)s3)n2)c1 (stereo not drawn) [Compound A-588, (1-{5-[6-(4-methylpyridin-2-ylamino)pyridin-2-yl]thiazol-2-yl}pyrrolidin-3-yl)acetic acid] | < 100 nM | > 1000 nM | – | – | – | –
18 | CC(=O)N1CCN(c2ncc(-c3cccc(Nc4cc(C)ccn4)n3)s2)CC1 [Compound A-419, 1-(4-{5-[6-(4-methylpyridin-2-ylamino)pyridin-2-yl]thiazol-2-yl}piperazin-1-yl)ethanone] | < 100 nM | 100 to 1000 nM | – | – | – | –
19 | Cc1ccnc(Nc2cccc(-c3cnc(N4CCN(C(=O)OC(C)(C)C)CC4)s3)n2)c1 [Compound A-403] | > 1000 nM | > 1000 nM | – | – | – | –
20 | Cc1ccnc(Nc2cccc(-c3cnc(CNCCC(=O)O)s3)n2)c1 [Compound A-165] | – | – | 100 to 1000 nM | > 1000 nM | – | –
21 | CC(=O)NC1CCN(Cc2ncc(-c3cccc(Nc4cc(C)ccn4)n3)s2)CC1 [Compound A-210] | – | – | > 1000 nM | > 1000 nM | – | –
